From publication PMC10907298 (Nature chemical biology, 2023)
Values joined by “and” are separate entries in the source; they are usually repeats but may differ in a detail not shown here. Identical values can stand only once. “Also recorded” adds a separate entry of the source.

Assays:
[1] = tested on: BMDM, human STING knock-in; assay: IP10 induction in bone marrow-derived macrophages; type: cell-based, mouse; conditions: 50μM, n=1
[2] = tested on: IFN-γ; assay: IFN-γ level 6 h after intratumoral injection (MSD); type: in vivo, mouse; conditions: for IFNg: 6 hours post-dosing, B16-SIY, hSTING KI mice, individual animals
[3] = target: human STING L98A (Homo sapiens, UniProt Q86WV6, L98A); assay: ISRE reporter assay with STING co-transfection in HEK293T cells
[4] = target: human STING Y240C (Homo sapiens, UniProt Q86WV6, Y240C); assay: as above
[5] = target: human STING R95K (Homo sapiens, UniProt Q86WV6, R95K); assay: as above
[6] = target: human STING (Homo sapiens, UniProt Q86WV6, G230A/R293Q/R71H); assay: THP1-Dual ISRE-Luc reporter gene assay (primary screen and dose response); conditions: for THP1-Dual reporter activity: single replicates (n=2)
[7] = tested on: anti-SIY tumor T cell response; assay: IFN-γ ELISPOT of PBMC stimulated with SIY peptide; type: in vivo, mouse; conditions: for IFN-γ Spots/2x105 PBMC: 6 days post treatment, SIY peptide, individual animals
[8] = target: human STING L136A (Homo sapiens, UniProt Q86WV6, L136A); assay: ISRE reporter assay with STING co-transfection in HEK293T cells
[9] = target: hSTING(R95A)-GFP (Homo sapiens, UniProt Q86WV6, R95A); assay: STING translocation/aggregate (puncta) assay in HEK293T cells; type: cell-based; conditions: 50 μM, overnight
[10] = target: human STING R238A (Homo sapiens, UniProt Q86WV6, R238A); assay: ISRE reporter assay with STING co-transfection in HEK293T cells; conditions: for ISRE reporter activity, mean: STING R238A
[11] = target: purified human STING (wild-type) (Homo sapiens, UniProt Q86WV6); assay: native gel analysis of STING oligomerization; conditions: compound alone, 40 μM, hSTING 20 μM
[12] = target: human STING I103S (Homo sapiens, UniProt Q86WV6, I103S); assay: ISRE reporter assay with STING co-transfection in HEK293T cells
[13] = tested on: B16-SIY tumors; assay: B16-SIY flank tumor model in human STING knock-in mice; type: in vivo, mouse; conditions: individual animals
[14] = target: hSTING(1–153)–mSTING(153–378) chimera (Homo sapiens, UniProt Q86WV6, A215V/A300E/A302V/A313V/A318T/A350V/D237N/D297E/D320G/E174G/E362R/E369D/G230I/G344N/H185L/H232R/I244V/K224M/K347M/K370Q/L189M/L202F/L222R/L247I/L333I/L346P/M214V/M357L/Q196R/Q276K/Q306R/R191S/R253P/S275A/S321N/S345A/S353P/T181M/T229N/T256V/T354P/T356V/V194G/V258I/V343M/V351A/Y182F/Y186H/Y274D); assay: ISRE reporter assay with STING co-transfection in HEK293T cells; type: cell-based, human/mouse; conditions: for ISRE reporter activity, mean: h(1-153)/m(153-378)STING
[15] = target: human STING R95C (Homo sapiens, UniProt Q86WV6, R95C); assay: as above
Sequence of human STING R95C (Q86WV6 whole entry R95C): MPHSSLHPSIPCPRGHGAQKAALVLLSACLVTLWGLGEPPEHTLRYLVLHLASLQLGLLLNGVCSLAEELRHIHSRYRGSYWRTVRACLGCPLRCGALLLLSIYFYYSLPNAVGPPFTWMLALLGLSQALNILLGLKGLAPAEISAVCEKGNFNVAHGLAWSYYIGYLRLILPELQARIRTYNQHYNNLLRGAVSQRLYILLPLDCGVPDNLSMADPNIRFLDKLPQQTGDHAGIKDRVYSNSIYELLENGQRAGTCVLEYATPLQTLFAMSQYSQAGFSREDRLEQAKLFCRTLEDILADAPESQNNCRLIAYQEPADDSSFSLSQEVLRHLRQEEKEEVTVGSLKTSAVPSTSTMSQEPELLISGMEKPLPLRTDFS

Sequence of human STING L136A (Q86WV6 whole entry L136A): as the sequence (Q86WV6 whole entry R95C) above, with C95R, L136A counted along it
Sequence of human STING I103S (Q86WV6 whole entry I103S): as the sequence (Q86WV6 whole entry R95C) above, with C95R, I103S counted along it
Sequence of hSTING(1–153)–mSTING(153–378) chimera (Q86WV6 with tags, fused parts or gaps with the stated changes): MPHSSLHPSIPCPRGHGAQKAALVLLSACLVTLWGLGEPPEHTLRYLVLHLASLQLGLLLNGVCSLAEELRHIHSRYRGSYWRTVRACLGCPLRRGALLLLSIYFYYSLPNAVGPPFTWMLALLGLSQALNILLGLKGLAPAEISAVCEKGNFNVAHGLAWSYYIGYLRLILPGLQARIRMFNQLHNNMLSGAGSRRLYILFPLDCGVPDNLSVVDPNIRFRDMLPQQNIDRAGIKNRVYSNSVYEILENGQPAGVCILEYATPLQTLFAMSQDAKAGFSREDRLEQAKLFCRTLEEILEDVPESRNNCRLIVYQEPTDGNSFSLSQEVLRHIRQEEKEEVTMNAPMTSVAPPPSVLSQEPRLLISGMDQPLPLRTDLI
Sequence of human STING R238A (Q86WV6 whole entry R238A): as the sequence (Q86WV6 whole entry R95C) above, with C95R, R238A counted along it
Sequence of human STING (Q86WV6 whole entry R71H/G230A/R293Q): as the sequence (Q86WV6 whole entry R95C) above, with R71H, C95R, G230A, R293Q counted along it
Sequence of human STING R95K (Q86WV6 whole entry R95K): as the sequence (Q86WV6 whole entry R95C) above, with C95K counted along it
Sequence of human STING L98A (Q86WV6 whole entry L98A): as the sequence (Q86WV6 whole entry R95C) above, with C95R, L98A counted along it
Sequence of purified human STING (wild-type) (Q86WV6 1-343): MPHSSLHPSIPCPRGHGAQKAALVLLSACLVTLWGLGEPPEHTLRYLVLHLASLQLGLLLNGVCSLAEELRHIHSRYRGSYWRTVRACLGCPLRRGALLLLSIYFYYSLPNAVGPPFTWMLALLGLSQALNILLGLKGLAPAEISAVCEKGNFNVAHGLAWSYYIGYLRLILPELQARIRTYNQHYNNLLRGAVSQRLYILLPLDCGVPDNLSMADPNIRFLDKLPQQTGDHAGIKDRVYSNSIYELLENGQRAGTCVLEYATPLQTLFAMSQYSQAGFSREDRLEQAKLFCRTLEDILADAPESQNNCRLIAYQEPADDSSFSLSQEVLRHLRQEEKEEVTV
Sequence of human STING Y240C (Q86WV6 whole entry Y240C): as the sequence (Q86WV6 whole entry R95C) above, with C95R, Y240C counted along it
Sequence of hSTING(R95A)-GFP (Q86WV6 whole entry R95A): as the sequence (Q86WV6 whole entry R95C) above, with C95A counted along it

STING activation in words [3]: various degrees of reduction
STING activation in words [4]: maintained full agonist activity
STING activation in words [5]: partially active
improvement of AC50 over NVS-STG1 [6]: ~10 fold
induction of ISRE-Luc reporter [6]: over 100 fold
THP1-Dual reporter activity ([6]; 97.7 nM): 10.063 and -15.21
THP1-Dual reporter activity ([6]; 195 nM): 30.21 and -21.271
THP1-Dual reporter activity ([6]; 391 nM): 28.405 and -4.368
THP1-Dual reporter activity ([6]; 781 nM): -15.248 and 7.115
THP1-Dual reporter activity ([6]; 1563 nM): 29.455 and 0.573
THP1-Dual reporter activity ([6]; 3125 nM): 539.702 and 407.097
THP1-Dual reporter activity ([6]; 6250 nM): 5408.19 and 4554.72
THP1-Dual reporter activity ([6]; 12500 nM): 9931.09 and 8981.43
THP1-Dual reporter activity ([6]; 25000 nM): 8940.66 and 8036.74
STING activation in words [8]: enhancement of activity
ISRE reporter activity, mean ([8]; Log[μM] 0.3, Figure 3c): 219.432
ISRE reporter activity, mean ([8]; Log[μM] 1, Figure 3c): 217.628
ISRE reporter activity, mean ([8]; Log[μM] -0.4, Figure 3c): 223.566
ISRE reporter activity, mean ([8]; Log[μM] -1.1, Figure 3c): 146.908
ISRE reporter activity, mean ([8]; Log[μM] -1.8, Figure 3c): 75.9441
ISRE reporter activity, mean ([8]; Log[μM] -2.49, Figure 3c): 15.9853
ISRE reporter activity, mean ([8]; Log[μM] -3.19, Figure 3c): 27.3277
STING activation in words ([10]; R238A): maintained full agonist activity
ISRE reporter activity, mean ([10]; Log[μM] 0.267606): 22.8148
ISRE reporter activity, mean ([10]; Log[μM] 0.744728): 30.7761
ISRE reporter activity, mean ([10]; Log[μM] 1.22185): 19.5642
ISRE reporter activity, mean ([10]; Log[μM] 1.69897): 5.793
ISRE reporter activity, mean ([10]; Log[μM] -0.209515): 16.4448
ISRE reporter activity, mean ([10]; Log[μM] -0.686637): 8.4
ISRE reporter activity, mean ([10]; Log[μM] -1.16376): 4.954
ISRE reporter activity, mean ([10]; Log[μM] -4.30103): 2.802
ISRE reporter activity, mean ([12]; Log[μM] 0.2): 30.5
ISRE reporter activity, mean ([12]; Log[μM] 0.5): 41.9
ISRE reporter activity, mean ([12]; Log[μM] 0.8): 48.4
ISRE reporter activity, mean ([12]; Log[μM] 1.1): 57
ISRE reporter activity, mean ([12]; Log[μM] 1.4): 55.6
ISRE reporter activity, mean ([12]; Log[μM] -0.1): 23.3
ISRE reporter activity, mean ([12]; Log[μM] -0.4): 12.5
ISRE reporter activity, mean ([12]; Log[μM] -0.7): 7.7
ISRE reporter activity, mean ([12]; Log[μM] -1): 3.3
ISRE reporter activity, mean ([12]; Log[μM] -1.3): 1.4
ISRE reporter activity, mean ([14]; Log[μM] 0.2): 5.4
ISRE reporter activity, mean ([14]; Log[μM] 0.5): 12
ISRE reporter activity, mean ([14]; Log[μM] 0.8): 17.4
ISRE reporter activity, mean ([14]; Log[μM] 1.1): 24.2
ISRE reporter activity, mean ([14]; Log[μM] 1.4): 26.3
ISRE reporter activity, mean ([14]; Log[μM] -0.1): 2.6
ISRE reporter activity, mean ([14]; Log[μM] -0.4): 1.4
ISRE reporter activity, mean ([14]; Log[μM] -0.7): 0.8
ISRE reporter activity, mean ([14]; Log[μM] -1): 0.7
ISRE reporter activity, mean ([14]; Log[μM] -1.3): 0.7
STING activation in words ([14]; hSTING TMD–mSTING LBD chimera): induced significant activation
ISRE reporter activity, mean ([15]; Log[μM] 0.2): 0.9
ISRE reporter activity, mean ([15]; Log[μM] 0.5): 0.8
ISRE reporter activity, mean ([15]; Log[μM] 0.8): 1.1
ISRE reporter activity, mean ([15]; Log[μM] 1.1): 1.9
ISRE reporter activity, mean ([15]; Log[μM] 1.4): 2.1
ISRE reporter activity, mean ([15]; Log[μM] -0.1): 0.8
ISRE reporter activity, mean ([15]; Log[μM] -0.4): 0.8
ISRE reporter activity, mean ([15]; Log[μM] -0.7): 0.8
ISRE reporter activity, mean ([15]; Log[μM] -1): 0.7
ISRE reporter activity, mean ([15]; Log[μM] -1.3): 0.7
Structure (SMILES): COc1cc(C(=O)O)ccc1NCc1ccc(C2(C(C)(C)C)OCC(C)(C)CO2)cc1 [NVS-STG2]
IP10 ([1]; BMDM hSTING+/+): 5284 pg/mL
IP10 ([1]; BMDM hSTING+/indel): 1541.25 pg/mL
IFNg ([2]; 400μg intratumorally): 39.4953 pg/mL and 46.0042 pg/mL and 12.5471 pg/mL and 24.0798 pg/mL and 11.9723 pg/mL and 24.0458 pg/mL and 11.7115 pg/mL and 37.7 pg/mL and 31.9987 pg/mL
IFNg ([2]; 800μg intratumorally): 69.5013 pg/mL and 56.155 pg/mL and 39.6205 pg/mL and 20.7743 pg/mL and 42.9846 pg/mL and 43.1066 pg/mL and 31.0552 pg/mL and 38.6876 pg/mL and 47.5545 pg/mL
plasma IFNγ level in words ([2]; 6-hour post dosing): significant increase of plasma IFNγ level
IFN-γ Spots/2x105 PBMC ([7]; 400μg intratumorally): 141.667 Spots/2x105 PBMC and 96.3333 Spots/2x105 PBMC and 50 Spots/2x105 PBMC and 252 Spots/2x105 PBMC and 47 Spots/2x105 PBMC and 48 Spots/2x105 PBMC and 38.6667 Spots/2x105 PBMC and 77.3333 Spots/2x105 PBMC and 194.333 Spots/2x105 PBMC
IFN-γ Spots/2x105 PBMC ([7]; 800μg intratumorally): 144 Spots/2x105 PBMC and 181.5 Spots/2x105 PBMC and 154.667 Spots/2x105 PBMC and 138.333 Spots/2x105 PBMC and 210 Spots/2x105 PBMC and 286.333 Spots/2x105 PBMC and 79.5 Spots/2x105 PBMC and 96.3333 Spots/2x105 PBMC
T-cell priming response in words ([7]; B16-SIY, hSTING KI mice): dose dependent and significant induction of T-cell priming response
puncta-like structure formation in words [9]: lost the ability to form puncta-like structures
induction of STING oligomerization in words [11]: alone was able to induce high-order oligomers of STING
Tumor Volume ([13]; 400μg intratumorally on day 8, day 8 post implant): 66 mm3 and 90 mm3 and 97 mm3 and 105 mm3 and 146 mm3 and 151 mm3 and 169 mm3 and 182 mm3 and 216 mm3
Tumor Volume ([13]; 400μg intratumorally on day 8, day 10 post implant): 54 mm3 and 77 mm3 and 203 mm3 and 84 mm3 and 50 mm3 and 285 mm3 and 89 mm3 and 124 mm3 and 240 mm3
Tumor Volume ([13]; 400μg intratumorally on day 8, day 13 post implant): 38 mm3 and 77 mm3 and 85 mm3 and 44 mm3 and 173 mm3 and 290 mm3 and 65 mm3 and 86 mm3 and 178 mm3
Tumor Volume ([13]; 800μg intratumorally on day 8, day 8 post implant): 71 mm3 and 84 mm3 and 98 mm3 and 102 mm3 and 148 mm3 and 150 mm3 and 177 mm3 and 223 mm3
Tumor Volume ([13]; 800μg intratumorally on day 8, day 10 post implant): 62 mm3 and 28 mm3 and 136 mm3 and 99 mm3 and 76 mm3 and 125 mm3 and 109 mm3 and 177 mm3
Tumor Volume ([13]; 800μg intratumorally on day 8, day 13 post implant): 37 mm3 and 60 mm3 and 126 mm3 and 77 mm3 and 50 mm3 and 150 mm3 and 71 mm3 and 185 mm3
STING activation in words [15]: lost all activity; also recorded: essentially irresponsive
